Reference: patent publication US20260152494A1, “CDK2 INHIBITORS AND METHODS OF USING THE SAME” (Cedilla Therapeutics, Inc., priority 2022, published 2026)

What was measured:
CDK2/Cyclin E1 [1] = molecular target: T1, CDK2/Cyclin E1 (Homo sapiens, UniProt P24941); experiment: ADPGLO (CDK2/E1-37C) ADP-Glo Luminescent Kinase Assay; assay type: biochemical; conditions: 0.18 nM CDK2/Cyclin E1, 100 μM ATP, 1.5 μM Histone H1, 37° C., 60 min preincubation
T1 construct: purchased Eurofins 14-475
Procedure: Example A2: ADPGLO (CDK2/E1-37C)
Inhibition of CDK2/Cyclin E1 activity by the presence of small molecules was evaluated using ADP-Glo Luminescent Kinase Assay (Promega). Activated CDK2/Cyclin E1 was incubated with its substrate Histone H1 (SignalChem H10-54N) in the kinase reaction buffer (100 μM ATP, 50 mM HEPES pH 7.5, 10 mM MgCl2, 1 mM EDTA, 2 mM DTT, 0.01% Brij35, 0.5 mg/mL BSA). Luminescence was recorded with an Envision plate reader (PerkinElmer).
Dose titrations of inhibitors in 100% DMSO were combined with 0.36 nM CDK2/Cyclin E1 in reaction buffer. The mixtures were incubated for 60 minutes at 37° C. before the addition of ATP and Histone H1 substrate to initiate the kinase reaction. The final conditions were 0.18 nM CDK2/Cyclin E1, 100 μM ATP, and 1.5 μM Histone H1. The reactions were incubated at 37° C. for 90 minutes before being stopped with the addition of ADP-Glo reagent. This mixture was incubated at room temperature for 60 minutes before Kinase Detection Solution is added to generate luminescence. The stopped reactions were analyzed on an Envision plate reader. The conversion ratios were normalized to yield % activity, plotted against compound concentration, and fit to a four-parameter equation to determine the IC50 for each compound.

[2] = test system: Kuramochi cells labeled with mApple-H2B; experiment: IncuCyte cell proliferation assay; assay type: cell-based; conditions: Kuramochi RB-WT cells, 72 hours, cell count normalized to DMSO
Procedure: Example A3: IncuCyte® Cell Proliferation Assay
IncuCyte® assay was used to measure the effect of disclosed compounds on cell proliferation. Fluorescent microscopy images of cells were taken immediately after compound treatment and 72 hours later. Image analysis software was used to obtain cell counts as a function of compound concentration. Kuramochi cells labeled with mApple-H2B were seeded on 384-well assay-ready plates. Plates were placed in an IncuCyte® (Sartorius) and scanned at 0 and 72 hours. IncuCyte® software was used to count the number of fluorescent nuclei in each well. The fold change in cell count from 0 to 72 hours in wells treated with increasing compounds concentrations (10 pts, 1/2 log dilution, 20 μM top concentration) was normalized to DMSO control wells. The normalized cell counts were fit with dose response curves and a GI50 was calculated.

CDK2/Cyclin E1 [3] = molecular target: T1, CDK2/Cyclin E1; experiment: CDK2/Cyclin E1 Caliper LabChip EZ Reader mobility shift assay; assay type: biochemical; conditions: 2.5 nM CDK2/Cyclin E1, 100 μM ATP, 1.5 μM fluorescent peptide, 30 min preincubation; read-out: Caliper Assay (CDK2/CCNE1): IC50
Procedure: Example A1: CDK2/Cyclin E1 Caliper Assay
Inhibition of CDK2/Cyclin E1 activity in the presence of compounds of the present disclosure was evaluated using a Caliper LabChip® EZ Reader mobility shift assay. In the assay, CDK2/Cyclin E1 (Eurofins, 14-475) catalyzed the phosphorylation of a fluorescently tagged peptide 5-FAM-QSPKKG-CONH2 (PerkinElmer, FL Peptide 18) which induced a difference in capillary electrophoresis mobility. The peptide substrate and product were measured, and the conversion ratio was used to determine the inhibition (as % activity and IC50 values) of CDK2/Cyclin E1. Reactions contained 50 mM HEPES pH 7.5, 10 mM MgCl2, 1 mM EDTA, 2 mM DTT, 0.01% Brij35, 0.5 mg/mL BSA, 0.1% DMSO, 2.5 nM CDK2/Cyclin E1, 100 μM ATP, and 1.5 μM fluorescent peptide substrate.
Dose titrations of inhibitors in 100% DMSO were combined with 3.25 nM CDK2/Cyclin E1 and 130 μM of ATP in reaction buffer. The mixtures were incubated for 30 minutes before the addition of fluorescent peptide substrate to initiate the kinase reaction. The final conditions were 2.5 nM CDK2/Cyclin E1, 100 μM ATP, and 1.5 μM fluorescent peptide. The reactions were stopped after 100 minutes with the addition of EDTA (400 mM final EDTA concentration). The stopped reactions were analyzed on a Caliper LabChip® EZ Reader II. The conversion ratios were normalized to yield % activity, plotted against compound concentration, and fit to a four-parameter equation to determine the IC50 for each compound.

| SMILES | IC50 (CDK2/Cyclin E1 [1]) [µM] | IC50 [2] [µM] | IC50 (CDK2/Cyclin E1 [3]) [µM] |
| --- | --- | --- | --- |
| C[C@@H](OCC1CCCCC1)[C@H](NC(=O)[C@H]1CN(C(=O)c2cncs2)CC12CCOCC2)C(=O)N1CCC(c2ccc(C(=O)O)cc2)CC1 (single isomer, unassigned) [I-4 1st, 4-(1-(O-(cyclohexylmethyl)-N-(2-(thiazole-5-carbonyl)-8-oxa-2-azaspiro[4.5]decane-4-carbonyl)-L-threonyl)piperidin-4-yl)benzoic acid] | > 10 | > 20 | – |
| C[C@@H](OCC1CCCCC1)[C@H](NC(=O)[C@@H]1CN(C(=O)c2cncs2)CC12CCOCC2)C(=O)N1CCC(c2ccc(C(=O)O)cc2)CC1 (single isomer, unassigned) [I-4 2nd, 4-(1-(O-(cyclohexylmethyl)-N-(2-(thiazole-5-carbonyl)-8-oxa-2-azaspiro[4.5]decane-4-carbonyl)-L-threonyl)piperidin-4-yl)benzoic acid] | > 10 | > 20 | – |
| C[C@@H](OCC1CCCCC1)[C@H](NC(=O)[C@@H]1CN(Cc2cnn(Cc3ccccc3)c2)C(=O)C12CN(C(=O)[C@H]1CC1(C)C)C2)C(=O)N1CCC(c2nccs2)CC1 [Compound I-5, (S)-6-((1-benzyl-1H-pyrazol-4-yl)methyl)-N-((2S,3R)-3-(cyclohexylmethoxy)-1-oxo-1-(4-(thiazol-2-yl)piperidin-1-yl)butan-2-yl)-2-((S)-2,2-dimethylcyclopropane-1-carbonyl)-5-oxo-2,6-diazaspiro[3.4]octane-8-carboxamide] | ≤ 0.5 | ≤ 0.5 | – |
| CC1(C)C[C@@H]1C(=O)N1CC2(C1)C(=O)N(Cc1cncs1)CC2c1nnc(C(F)(F)c2ccc(Cl)c(Cl)c2)o1 (stereo partly drawn) [Compound I-6, 8-(5-((3,4-dichlorophenyl)difluoromethyl)-1,3,4-oxadiazol-2-yl)-2-((S)-2,2-dimethylcyclopropane-1-carbonyl)-6-(thiazol-5-ylmethyl)-2,6-diazaspiro[3.4]octan-5-one] | > 100 | > 20 | > 10 |
| CC(=O)N[C@@H](C(=O)NC1CN(C(=O)c2cnn(Cc3ccccc3)c2)CC12CN(C(=O)[C@H]1CC1(C)C)C2)[C@H](C)OCC1CCCCC1 (stereo partly drawn) [Compound I-25, (2R,3S)-2-acetamido-N-(6-(1-benzyl-1H-pyrazole-4-carbonyl)-2-((S)-2,2-dimethylcyclopropane-1-carbonyl)-2,6-diazaspiro[3.4]octan-8-yl)-3-(cyclohexylmethoxy)butanamide] | – | > 20 | 0.1 to 1 |
| C[C@@H](OCC1CCCCC1)[C@H](NC(=O)C1CS(=O)(=O)CC12CN(C(=O)[C@H]1CC1(C)C)C2)C(=O)N1CCCCC1 (stereo partly drawn) [Compound I-26, N-((2S,3R)-3-(cyclohexylmethoxy)-1-oxo-1-(piperidin-1-yl)butan-2-yl)-2-((S)-2,2-dimethylcyclopropane-1-carbonyl)-6-thia-2-azaspiro[3.4]octane-8-carboxamide 6,6-dioxide] | – | > 20 | > 10 |
| CC1(C)C[C@@H]1C(=O)N1CC2(CN(C(=O)c3cncs3)CC2C#N)C1 (stereo partly drawn) [Compound I-27, 2-((S)-2,2-dimethylcyclopropane-1-carbonyl)-6-(thiazole-5-carbonyl)-2,6-diazaspiro[3.4]octane-8-carbonitrile] | – | > 20 | > 10 |
| CCOC(=O)[C@@H]1CN(C(C)=O)CC12CN(C(C)=O)C2 [Compound I-28, ethyl (S)-2,6-diacetyl-2,6-diazaspiro[3.4]octane-8-carboxylate] | – | > 20 | > 10 |
| CNC(=O)[C@@H](NC(=O)[C@@H]1CN(C(=O)c2cnn(Cc3ccccc3)c2)CC12CN(C(=O)N(C)C1CC1)C2)[C@@H](C)OCC1CCCCC1 [Compound I-30, (S)-6-(1-benzyl-1H-pyrazole-4-carbonyl)-N8-((2S,3R)-3-(cyclohexylmethoxy)-1-(methylamino)-1-oxobutan-2-yl)-N2-cyclopropyl-N2-methyl-2,6-diazaspiro[3.4]octane-2,8-dicarboxamide] | – | > 20 | 0.1 to 1 |
| C[C@@H](OCC1CCCCC1)[C@H](NC(=O)[C@@H]1CNCC12CN(C(=O)[C@H]1CC1(C)C)C2)C(=O)N1CCOCC1 [Compound I-32, (S)—N-((2S,3R)-3-(cyclohexylmethoxy)-1-morpholino-1-oxobutan-2-yl)-2-((S)-2,2-dimethylcyclopropane-1-carbonyl)-2,6-diazaspiro[3.4]octane-8-carboxamide] | – | > 20 | > 10 |
| C[C@@H](OCC1CCCCC1)[C@H](NC(=O)[C@@H]1CN(C(=O)OC(C)(C)C)CC12CN(C(=O)[C@H]1CC1(C)C)C2)C(=O)N1CCOCC1 [Compound I-33] | – | > 20 | 1 to 10 |
| CC(=O)N1C[C@@H](C(=O)N[C@H](C(=O)N2CCOCC2)[C@@H](C)OCC2CCCCC2)C2(C1)CN(C(=O)[C@H]1CC1(C)C)C2 [Compound I-36, (S)-6-acetyl-N-((2S,3R)-3-(cyclohexylmethoxy)-1-morpholino-1-oxobutan-2-yl)-2-((S)-2,2-dimethylcyclopropane-1-carbonyl)-2,6-diazaspiro[3.4]octane-8-carboxamide] | – | > 20 | > 10 |
| C[C@@H](OCC1CCCCC1)[C@H](NC(=O)[C@@H]1CNCC12CN(C(=O)[C@H]1CC1(C)C)C2)C(=O)N1CCCCC1 [Compound I-37, (S)—N-((2S,3R)-3-(cyclohexylmethoxy)-1-oxo-1-(piperidin-1-yl)butan-2-yl)-2-((S)-2,2-dimethylcyclopropane-1-carbonyl)-2,6-diazaspiro[3.4]octane-8-carboxamide] | – | > 20 | > 10 |
| C[C@@H](OCC1CCCCC1)[C@H](NC(=O)[C@@H]1CN(C(=O)OC(C)(C)C)CC12CN(C(=O)[C@H]1CC1(C)C)C2)C(=O)N1CCCCC1 [Compound I-38] | – | > 20 | 1 to 10 |
| CNC(=O)[C@@H](NC(=O)[C@@H]1CN(C(C)=O)CC12CN(C(=O)[C@H]1CC1(C)C)C2)[C@@H](C)OCC1CCCCC1 [Compound I-39] | – | > 20 | > 10 |
| C[C@@H](OCC1CCCCC1)[C@H](NC(=O)C1CN(C(=O)c2cncs2)CC12CCN(C(=O)[C@H]1CC1(C)C)CC2)C(=O)N1CCC(c2ccc(C(=O)O)cc2)CC1 (stereo partly drawn) [Compound I-41, 4-(1-(O-(cyclohexylmethyl)-N-(8-((S)-2,2-dimethylcyclopropane-1-carbonyl)-2-(thiazole-5-carbonyl)-2,8-diazaspiro[4.5]decane-4-carbonyl)-L-threonyl)piperidin-4-yl)benzoic acid] | ≤ 0.5 | > 20 | – |
